According to US9266892B2, “Fused pyrazoles as FGFR inhibitors” (Incyte Corporation, priority 2012, dated 2016):

Tests used:
Type in all cases: biochemical
FGFR2 = target: T1, FGFR2 (Homo sapiens, UniProt P21802); test: FGFR Enzymatic Assay (FRET peptide phosphorylation), FGFR2; conditions: FGFR2 0.01 nM, ATP 100 μM
T1 construct: purchased Millipore or Invitrogen
Outline: (§1)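 Human FGFR1 (0.02 nM) and FGFR2 (0.01 nM) were pre-incubated with compound for 5-10 min in HEPES buffer pH 7.5, then reacted at 25 °C for 1 hr with 500 nM biotinylated peptide and ATP (FGFR1 210 μM; FGFR2 100 μM). Phosphopeptide was detected by Eu-PY20/APC-streptavidin TR-FRET after EDTA quench. IC50 came from variable-slope sigmoidal fits.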

FGFR3 = target: T2, FGFR3 (Homo sapiens, UniProt P22607); test: FGFR Enzymatic Assay (FRET peptide phosphorylation), FGFR3; conditions: ATP 140 μM, 25° C. for 1 hr
T2 construct: purchased Millipore
T2 sequence (P22607 23-806): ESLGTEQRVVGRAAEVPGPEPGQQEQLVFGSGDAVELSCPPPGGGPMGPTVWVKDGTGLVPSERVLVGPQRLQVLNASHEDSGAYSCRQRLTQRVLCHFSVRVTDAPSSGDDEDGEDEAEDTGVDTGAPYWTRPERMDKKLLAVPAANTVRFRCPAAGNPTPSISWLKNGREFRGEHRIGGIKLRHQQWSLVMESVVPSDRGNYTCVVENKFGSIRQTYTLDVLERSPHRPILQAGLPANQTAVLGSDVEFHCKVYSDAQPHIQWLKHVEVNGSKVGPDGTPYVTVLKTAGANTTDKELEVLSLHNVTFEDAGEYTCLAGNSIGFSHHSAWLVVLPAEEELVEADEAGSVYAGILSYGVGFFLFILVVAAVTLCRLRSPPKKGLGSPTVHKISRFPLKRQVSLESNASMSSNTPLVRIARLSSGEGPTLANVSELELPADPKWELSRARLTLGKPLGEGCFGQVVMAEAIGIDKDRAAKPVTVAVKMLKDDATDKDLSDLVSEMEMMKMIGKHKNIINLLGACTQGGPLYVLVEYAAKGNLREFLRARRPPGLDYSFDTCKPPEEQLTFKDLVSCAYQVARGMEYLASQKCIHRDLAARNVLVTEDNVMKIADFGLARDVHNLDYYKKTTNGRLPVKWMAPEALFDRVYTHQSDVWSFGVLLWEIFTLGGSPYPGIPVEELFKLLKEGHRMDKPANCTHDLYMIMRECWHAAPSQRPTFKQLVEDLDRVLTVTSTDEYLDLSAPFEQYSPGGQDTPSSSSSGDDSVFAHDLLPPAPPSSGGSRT
Outline: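 FGFR3 in 50 mM HEPES pH 7.5, 10 mM […]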

FGFR1 = target: T3, FGFR1 (Homo sapiens, UniProt P11362); test: FGFR Enzymatic Assay (FRET peptide phosphorylation), FGFR1; conditions: FGFR1 0.02 nM, ATP 210 μM
T3 construct: purchased Millipore or Invitrogen
T3 sequence (P11362 22-822): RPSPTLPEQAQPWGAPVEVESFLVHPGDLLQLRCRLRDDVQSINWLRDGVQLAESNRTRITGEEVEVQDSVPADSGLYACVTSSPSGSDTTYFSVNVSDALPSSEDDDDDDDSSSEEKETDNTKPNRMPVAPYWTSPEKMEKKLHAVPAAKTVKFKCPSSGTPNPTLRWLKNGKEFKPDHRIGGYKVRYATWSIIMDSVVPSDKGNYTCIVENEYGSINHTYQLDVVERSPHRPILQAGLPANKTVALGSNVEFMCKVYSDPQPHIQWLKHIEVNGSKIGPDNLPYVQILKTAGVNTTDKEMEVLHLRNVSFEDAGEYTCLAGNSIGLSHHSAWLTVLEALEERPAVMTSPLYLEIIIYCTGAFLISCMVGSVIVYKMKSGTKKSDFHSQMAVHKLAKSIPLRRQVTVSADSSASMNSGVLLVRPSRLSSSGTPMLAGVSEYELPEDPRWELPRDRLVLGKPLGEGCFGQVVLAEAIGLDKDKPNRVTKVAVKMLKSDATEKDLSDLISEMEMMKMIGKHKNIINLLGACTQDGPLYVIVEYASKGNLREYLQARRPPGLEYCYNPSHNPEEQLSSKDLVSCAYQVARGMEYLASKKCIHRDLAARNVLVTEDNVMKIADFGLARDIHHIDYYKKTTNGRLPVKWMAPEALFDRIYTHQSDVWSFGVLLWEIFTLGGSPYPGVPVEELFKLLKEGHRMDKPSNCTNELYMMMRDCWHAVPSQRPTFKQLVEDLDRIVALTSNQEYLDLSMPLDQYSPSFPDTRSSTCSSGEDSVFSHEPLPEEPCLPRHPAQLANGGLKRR
Outline: as §1

Measured: IC50

T1 sequence (P21802 22-821): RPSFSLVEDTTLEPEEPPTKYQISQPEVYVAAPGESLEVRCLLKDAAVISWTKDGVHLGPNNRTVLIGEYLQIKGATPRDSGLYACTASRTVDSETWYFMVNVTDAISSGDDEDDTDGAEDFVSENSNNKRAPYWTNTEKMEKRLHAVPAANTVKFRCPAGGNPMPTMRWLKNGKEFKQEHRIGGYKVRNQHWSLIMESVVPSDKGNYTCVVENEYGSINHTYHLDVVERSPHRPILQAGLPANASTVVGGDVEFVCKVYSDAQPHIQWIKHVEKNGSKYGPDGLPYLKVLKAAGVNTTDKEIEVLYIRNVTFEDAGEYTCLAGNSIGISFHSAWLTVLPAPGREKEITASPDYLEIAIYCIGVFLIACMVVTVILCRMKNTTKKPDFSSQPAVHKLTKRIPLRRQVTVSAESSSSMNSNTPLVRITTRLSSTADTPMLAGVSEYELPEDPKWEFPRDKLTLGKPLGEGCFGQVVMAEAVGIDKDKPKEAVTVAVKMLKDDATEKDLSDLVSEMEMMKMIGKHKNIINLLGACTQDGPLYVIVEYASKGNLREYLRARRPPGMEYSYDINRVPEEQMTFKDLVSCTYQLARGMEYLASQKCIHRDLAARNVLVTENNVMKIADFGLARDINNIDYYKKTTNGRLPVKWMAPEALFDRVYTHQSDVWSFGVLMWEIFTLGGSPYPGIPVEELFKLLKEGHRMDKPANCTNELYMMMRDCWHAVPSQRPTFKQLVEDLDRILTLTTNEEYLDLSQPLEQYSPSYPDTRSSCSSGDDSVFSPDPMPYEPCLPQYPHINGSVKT

COCCN1Cc2cc(-c3n[nH]c4cc(-c5c(F)c(OC)cc(OC)c5F)ncc34)ccc2C1=O [Example 58, 5-[6-(2,6-Difluoro-3,5-dimethoxyphenyl)-1H-pyrazolo[4,3-c]pyridin-3-yl]-2-(2-methoxyethyl)isoindolin-1-one]
< 100 nM: all assays above

COc1cc(OC)c(F)c(-c2cc3[nH]nc(-c4ccc5c(c4)CN(C4CCOCC4)C5=O)c3cn2)c1F [Example 59, 5-[6-(2,6-Difluoro-3,5-dimethoxyphenyl)-1H-pyrazolo[4,3-c]pyridin-3-yl]-2-(tetrahydro-2H-pyran-4-yl)isoindolin-1-one]
< 100 nM: all assays above

COc1cc(OC)c(F)c(-c2cc3[nH]nc(-c4ccc5c(c4)CN(CC(F)(F)F)C5=O)c3cn2)c1F [Example 60, 5-[6-(2,6-Difluoro-3,5-dimethoxyphenyl)-1H-pyrazolo[4,3-c]pyridin-3-yl]-2-(2,2,2-trifluoroethyl)isoindolin-1-one]
< 100 nM: all assays above

COc1cc(OC)c(F)c(-c2cc3[nH]nc(-c4ccc5c(c4)CN([C@H]4CC[C@@H](O)CC4)C5=O)c3cn2)c1F [Example 61, 5-[6-(2,6-Difluoro-3,5-dimethoxyphenyl)-1H-pyrazolo[4,3-c]pyridin-3-yl]-2-(cis-4-hydroxycyclohexyl)isoindolin-1-one]
< 100 nM: all assays above

COc1cc(OC)c(F)c(-c2cc3[nH]nc(-c4ccc5c(c4)CN([C@H]4CC[C@H](O)CC4)C5=O)c3cn2)c1F [Example 62, 5-[6-(2,6-Difluoro-3,5-dimethoxyphenyl)-1H-pyrazolo[4,3-c]pyridin-3-yl]-2-(trans-4-hydroxycyclohexyl)isoindolin-1-one]
< 100 nM: all assays above

COc1cc(OC)c(F)c(-c2cc3[nH]nc(-c4ccc5c(c4)CN(C(C)CO)C5=O)c3cn2)c1F (stereo not drawn) [Example 63, 5-[6-(2,6-Difluoro-3,5-dimethoxyphenyl)-1H-pyrazolo[4,3-c]pyridin-3-yl]-2-(2-hydroxy-1-methylethyl)isoindolin-1-one]
< 100 nM: all assays above

COc1cc(OC)c(F)c(-c2cc3[nH]nc(-c4ccc5c(c4)CN(CC(C)O)C5=O)c3cn2)c1F (stereo not drawn) [Example 64, 5-[6-(2,6-Difluoro-3,5-dimethoxyphenyl)-1H-pyrazolo[4,3-c]pyridin-3-yl]-2-(2-hydroxypropyl)isoindolin-1-one]
< 100 nM: all assays above

COc1cc(OC)c(F)c(-c2cc3[nH]nc(-c4cc5c(cc4F)C(=O)N(C(C)C)C5)c3cn2)c1F [Example 65, 5-[6-(2,6-Difluoro-3,5-dimethoxyphenyl)-1H-pyrazolo[4,3-c]pyridin-3-yl]-6-fluoro-2-isopropylisoindolin-1-one]
< 100 nM: all assays above

COc1cc(OC)c(F)c(-c2cc3[nH]nc(-c4ccc5c(c4)CN(C4CCN(C)CC4)C5=O)c3cn2)c1F [Example 66, 5-[6-(2,6-Difluoro-3,5-dimethoxyphenyl)-1H-pyrazolo[4,3-c]pyridin-3-yl]-2-(1-methylpiperidin-4-yl)isoindolin-1-one]
< 100 nM: all assays above

COc1cc(OC)c(F)c(-c2cc3[nH]nc(-c4ccc5c(c4)CN(CCN(C)C)C5=O)c3cn2)c1F [Example 67, 5-[6-(2,6-Difluoro-3,5-dimethoxyphenyl)-1H-pyrazolo[4,3-c]pyridin-3-yl]-2-[2-(dimethylamino)ethyl]isoindolin-1-one]
< 100 nM: all assays above

COc1cc(OC)c(F)c(-c2cc3[nH]nc(-c4ccc5c(c4)CN(CCC4CCCN4C)C5=O)c3cn2)c1F (stereo not drawn) [Example 68, 5-[6-(2,6-Difluoro-3,5-dimethoxyphenyl)-1H-pyrazolo[4,3-c]pyridin-3-yl]-2-[2-(1-methylpyrrolidin-2-yl)ethyl]isoindolin-1-one]
< 100 nM: all assays above

CCN1Cc2cc(-c3n[nH]c4cc(-c5c(F)c(OC)cc(OC)c5Cl)ncc34)ccc2C1=O [Example 69, 5-[6-(2-chloro-6-fluoro-3,5-dimethoxyphenyl)-1H-pyrazolo[4,3-c]pyridin-3-yl]-2-ethylisoindolin-1-one]
< 100 nM: all assays above

COc1cc(OC)c(Cl)c(-c2cnc3c(-c4cnn(C)c4)n[nH]c3c2)c1Cl [Example 70, 6-(2,6-dichloro-3,5-dimethoxyphenyl)-3-(1-methyl-1H-pyrazol-4-yl)-1H-pyrazolo[4,3-b]pyridine]
< 100 nM: all assays above

COc1cc(OC)c(Cl)c(-c2cnc3c(-c4cnn(CCCO)c4)n[nH]c3c2)c1Cl [Example 71, 3-{4-[6-(2,6-Dichloro-3,5-dimethoxyphenyl)-1H-pyrazolo[4,3-b]pyridin-3-yl]-1H-pyrazol-1-yl}propan-1-ol]
< 100 nM: all assays above

COc1cc(OC)c(F)c(-c2ccc3c(-c4cnn(C)c4)n[nH]c3n2)c1F [Example 72, 6-(2,6-Difluoro-3,5-dimethoxyphenyl)-3-(1-methyl-1H-pyrazol-4-yl)-1H-pyrazolo[3,4-b]pyridine]
< 100 nM: all assays above

COc1cc(OC)c(Cl)c(-c2ncc3c(-c4cnn(C(C)C#N)c4)n[nH]c3n2)c1Cl (stereo not drawn) [Example 73, 2-{4-[6-(2,6-Dichloro-3,5-dimethoxyphenyl)-1H-pyrazolo[3,4-d]pyrimidin-3-yl]-1H-pyrazol-1-yl}propanenitrile]
< 100 nM: all assays above

COc1cc(OC)c(Cl)c(-c2ncc3c(-c4ccc5c(c4)CN(C4CC4)C5=O)n[nH]c3n2)c1Cl [Example 74, 2-Cyclopropyl-5-[6-(2,6-dichloro-3,5-dimethoxyphenyl)-1H-pyrazolo[3,4-d]pyrimidin-3-yl]isoindolin-1-one]
< 100 nM: all assays above

COc1cc(OC)c(Cl)c(-c2ncc3c(-c4ccc(N5CCN(C)CC5)cc4)n[nH]c3n2)c1Cl [Example 75, 6-(2,6-Dichloro-3,5-dimethoxyphenyl)-3-[4-(4-methylpiperazin-1-yl)phenyl]-1H-pyrazolo[3,4-d]pyrimidine]
< 100 nM: all assays above

COc1cc(OC)c(F)c(-c2ncc3c(-c4cnn(C(C)C#N)c4)n[nH]c3n2)c1F (stereo not drawn) [Example 76, 2-{4-[6-(2,6-Difluoro-3,5-dimethoxyphenyl)-1H-pyrazolo[3,4-d]pyrimidin-3-yl]-1H-pyrazol-1-yl}propanenitrile]
< 100 nM: all assays above

CCN1Cc2cc(-c3n[nH]c4nc(-c5c(Cl)c(OC)cc(OC)c5Cl)ncc34)cnc2C1=O [Example 77, 3-[6-(2,6-Dichloro-3,5-dimethoxyphenyl)-1H-pyrazolo[3,4-d]pyrimidin-3-yl]-6-ethyl-5,6-dihydro-7H-pyrrolo[3,4-b]pyridin-7-one]
< 100 nM: all assays above

COc1cc(OC)c(F)c(-c2ncc3c(-c4ccc5c(c4)CN(C(C)C)C5=O)n[nH]c3n2)c1F [Example 78, 5-[6-(2,6-Difluoro-3,5-dimethoxyphenyl)-1H-pyrazolo[3,4-d]pyrimidin-3-yl]-2-isopropylisoindolin-1-one]
< 100 nM: all assays above

COc1cc(OC)c(F)c(-c2ncc3c(-c4ccc5c(c4)CN(C4CCN(C)CC4)C5=O)n[nH]c3n2)c1F [Example 79, 5-[6-(2,6-Difluoro-3,5-dimethoxyphenyl)-1H-pyrazolo[3,4-d]pyrimidin-3-yl]-2-(1-methylpiperidin-4-yl)isoindolin-1-one]
< 100 nM: all assays above

COc1cc(OC)c(F)c(-c2ncc3c(-c4ccc5c(c4)CN(CCN(C)C)C5=O)n[nH]c3n2)c1F [Example 80, 5-[6-(2,6-Difluoro-3,5-dimethoxyphenyl)-1H-pyrazolo[3,4-d]pyrimidin-3-yl]-2-[2-(dimethylamino)ethyl]isoindolin-1-one]
< 100 nM: all assays above

COc1cc(OC)c(F)c(-c2ncc3c(-c4ccc5c(c4)CN(C(C)CO)C5=O)n[nH]c3n2)c1F (stereo not drawn) [Example 81, 5-[6-(2,6-Difluoro-3,5-dimethoxyphenyl)-1H-pyrazolo[3,4-d]pyrimidin-3-yl]-2-(2-hydroxy-1-methylethyl)isoindolin-1-one]
< 100 nM: all assays above
